Experimental data as given in ChEMBL document CHEMBL2016558, “CB 1/2 dual agonists with 3-carbamoyl 2-pyridone derivatives as antipruritics: reduction of CNS side effects by introducing polar functional groups” (Bioorg Med Chem Lett, 2012).

Columns and labels:
Mus musculus [1] = test: Toxicity in ICR mouse assessed as CB1-mediated stretching the without moving at 0.1 to 1 mg/kg, iv after 15 mins; type: organism-based; set-up: dose 0.1-1 mg/kg, route intravenous; conditions: in vivo, 0.25 h
Mus musculus [2] = test: Toxicity in ICR mouse assessed as CB1-mediated moving sluggishly at 0.1 to 1 mg/kg, iv after 15 mins; type: organism-based; set-up: dose 0.1-1 mg/kg, route intravenous; conditions: in vivo, 0.25 h
Mus musculus [3] = test: Toxicity in ICR mouse assessed as CB1-mediated walking with lying on the belly at 0.1 to 1 mg/kg, iv after 15 mins; type: organism-based; set-up: dose 0.1-1 mg/kg, route intravenous; conditions: in vivo, 0.25 h
Mus musculus [4] = test: Toxicity in ICR mouse assessed as CB1-mediated spasm, rigor at 0.1 to 1 mg/kg, iv after 15 mins; type: organism-based; set-up: dose 0.1-1 mg/kg, route intravenous; conditions: in vivo, 0.25 h
Mus musculus [5] = test: Toxicity in ICR mouse assessed as CB1-induced catalepsy at 0.1 to 1 mg/kg, iv after 15 mins; type: organism-based; set-up: dose 0.1-1 mg/kg, route intravenous; conditions: in vivo, 0.25 h
Cannabinoid receptor 1 = Cannabinoid receptor 1 (Homo sapiens, UniProt P21554); test: Displacement of [3H]-CP55940 from recombinant human CB1 receptor by scatchard plot analysis
Cannabinoid receptor 2 = Cannabinoid receptor 2 (Homo sapiens, UniProt P34972); test: Displacement of [3H]-CP55940 from recombinant human CB2 receptor by scatchard plot analysis
[6] = Ratio of drug level in brain to plasma in rat; type: ADME; conditions: read-out: BPR
Mus musculus [7] = test: Antipruritic activity in Crj:CD1 ICR mouse pruritic model assessed as inhibition of compound 48/80-induced scratching compound topically applied on the shaved back 15 mins prior challenge measured for 30 mins relative to control; type: functional

Cannabinoid receptor 1, sequence (P21554 whole entry): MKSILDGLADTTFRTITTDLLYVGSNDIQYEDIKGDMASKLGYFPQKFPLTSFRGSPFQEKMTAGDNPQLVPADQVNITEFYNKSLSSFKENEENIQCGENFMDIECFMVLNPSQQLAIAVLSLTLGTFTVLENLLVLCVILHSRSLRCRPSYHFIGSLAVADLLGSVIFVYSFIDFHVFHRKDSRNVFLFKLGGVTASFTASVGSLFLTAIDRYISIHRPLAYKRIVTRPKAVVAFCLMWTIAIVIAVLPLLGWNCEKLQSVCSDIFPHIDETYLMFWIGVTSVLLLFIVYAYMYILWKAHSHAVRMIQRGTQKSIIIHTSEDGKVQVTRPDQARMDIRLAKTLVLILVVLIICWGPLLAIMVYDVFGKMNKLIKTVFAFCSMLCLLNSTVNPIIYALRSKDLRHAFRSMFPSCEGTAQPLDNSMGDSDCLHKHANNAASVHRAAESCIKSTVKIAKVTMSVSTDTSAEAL
Cannabinoid receptor 2, sequence (P34972 whole entry): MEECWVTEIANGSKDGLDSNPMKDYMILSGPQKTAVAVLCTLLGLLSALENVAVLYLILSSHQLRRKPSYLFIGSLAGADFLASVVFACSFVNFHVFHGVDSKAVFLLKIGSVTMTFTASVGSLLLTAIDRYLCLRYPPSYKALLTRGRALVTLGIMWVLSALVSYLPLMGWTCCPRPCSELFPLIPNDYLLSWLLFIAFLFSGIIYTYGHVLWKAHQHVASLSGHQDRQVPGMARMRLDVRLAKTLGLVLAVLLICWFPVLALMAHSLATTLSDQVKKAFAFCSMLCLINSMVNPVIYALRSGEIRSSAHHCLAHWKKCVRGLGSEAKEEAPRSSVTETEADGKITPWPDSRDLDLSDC

SMILES | Activity (Mus musculus [1]) | Activity (Mus musculus [2]) | Activity (Mus musculus [3]) | Activity (Mus musculus [4]) | Activity (Mus musculus [5]) | Ki (Cannabinoid receptor 1) | Ki (Cannabinoid receptor 2) | Kp [6] | inhibition (INH) (Mus musculus [7])
CC(C)(NC(=O)c1cc2c(n(CC3CCCCC3)c1=O)CCCCCC2)C(=O)NCC(N)=O | Toxic | Toxic | Toxic | Toxic | Toxic | – | – | – | –
CC(C)(NC(=O)c1cc2c(n(CC3CCCCC3)c1=O)CCCCCC2)C(=O)NN | Toxic | Toxic | Toxic | Toxic | Toxic | 30 nM | 2.8 nM | – | –
CC(C)(NC(=O)c1cc2c(n(CC3CCCCC3)c1=O)CCCCCC2)C(=O)N1CCC(C(=O)O)CC1 | – | – | – | – | – | 2970 nM | 377 nM | – | –
COC(=O)C(C)(C)NC(=O)c1cc2c(n(CC3CCCCC3)c1=O)CCCCCC2 | Toxic | Toxic | Toxic | Toxic | Toxic | 1.7 nM | 0.3 nM | 3.35 | –
CC(C)(NC(=O)c1cc2c(n(CC3CCCCC3)c1=O)CCCCCC2)C(=O)NCC(=O)O | – | – | – | – | – | > 5000 nM | 2820 nM | – | –
CC(C)(NC(=O)c1cc2c(n(CC3CCCCC3)c1=O)CCCCCC2)C(=O)N1CCC(C(N)=O)CC1 | Toxic | Toxic | Toxic | Toxic | Toxic | 4.9 nM | 3 nM | – | –
CN(CCO)C(=O)C(C)(C)NC(=O)c1cc2c(n(CC3CCCCC3)c1=O)CCCCCC2 | Toxic | Toxic | Toxic | Toxic | Toxic | – | 0.6 nM | 0.28 | –
CN(C)CCNC(=O)C(C)(C)NC(=O)c1cc2c(n(CC3CCCCC3)c1=O)CCCCCC2 | – | – | – | – | – | 242 nM | 81 nM | – | –
CC(=O)NCCNC(=O)C(C)(C)NC(=O)c1cc2c(n(CC3CCCCC3)c1=O)CCCCCC2 | Toxic | Toxic | Toxic | Toxic | Toxic | 4.7 nM | 2.5 nM | – | –
CC(C)(NC(=O)c1cc2c(n(CC3CCCCC3)c1=O)CCCCCC2)C(=O)N1CCC(NS(C)(=O)=O)CC1 | Non-toxic | Non-toxic | Non-toxic | Non-toxic | Non-toxic | – | – | – | –
CC(C)(NC(=O)c1cc2c(n(CC3CCCCC3)c1=O)CCCCCC2)C(=O)NNS(C)(=O)=O | Non-toxic | Non-toxic | Non-toxic | Non-toxic | Non-toxic | 32 nM | 7.3 nM | 0.02 | 87%
CC(C)(NC(=O)c1cc2c(n(CC3CCCCC3)c1=O)CCCCCC2)C(=O)NCCCO | Toxic | Toxic | Toxic | Toxic | Toxic | 6.3 nM | 1 nM | – | –
CC(C)(NC(=O)c1cc2c(n(CC3CCCCC3)c1=O)CCCCCC2)C(=O)N1CCC(O)CC1 | Toxic | Toxic | Toxic | Toxic | Toxic | 8 nM | 1.1 nM | – | –
CC(C)(NC(=O)c1cc2c(n(CC3CCCCC3)c1=O)CCCCCC2)C(=O)N1CCC(C(=O)NS(C)(=O)=O)CC1 | – | – | – | – | – | 218 nM | 128 nM | – | –
CC(C)(NC(=O)c1cc2c(n(CC3CCCCC3)c1=O)CCCCCC2)C(=O)NCCCCCO | Toxic | Toxic | Toxic | Toxic | Toxic | 5.8 nM | 1.2 nM | – | –
CC(C)(NC(=O)c1cc2c(n(CC3CCCCC3)c1=O)CCCCCC2)C(=O)NCCOCCO | Toxic | Toxic | Toxic | Toxic | Toxic | 3.4 nM | 0.6 nM | – | –
